The values that follow are results of earlier work, collected in PMC3967229 (Marine Drugs, 2014).

Like-named read-outs stand apart in the source and are kept apart here.

The test system of one data set is HCT116 tumor. The following applies: i.p.
In the next data set the test system is MDA-MB-231 cells. Details: method as in PMID 22543582. The following applies: 10 mg/kg/day, together with dexamethasone.
The conditions of data set [1]: mouse in vivo model.
For data set [2] the following is noted: rabbit in vivo model.
The conditions of data set [3]: 5 mg/kg/day.
For data set [4] the following is noted: protein-assisted mechanism.
Assay in data set [5]: not given
The source holds these as a separate data set.

Assay in data set [6]: not given
The source holds these as a separate data set.

Details of data set [7]: method as in earlier work.

Consider `CCCCCCCC(=O)SCC/C=C/[C@@H]1CC(=O)NCc2nc(cs2)C2=N[C@@](C)(CS2)C(=O)N[C@@H](C(C)C)C(=O)O1` [largazole], for which the Cellular activity result is “low-nanomolar”. The HCT116 tumor growth result with HCT116 tumor (colon tumor xenograft mouse model) was “retarding HCT116 tumor growth”. Besides, the Acute toxicity entry in the data set on HCT116 tumor (up to the highest dose tested (50 mg/kg), mouse) is “without acute toxicity”. The “Invasiveness of orthotopic MDA-MB-231 tumors” value with MDA-MB-231 cells was “reducing the invasiveness”. In [1], the Bone-forming activity result is “bone-forming activity”. Moreover, in data set [2], the Bone-forming activity entry was “bone-forming activity”. The Liver fibrosis entry in data set [3] is “decreased liver fibrosis”. For the same compound, the “Conversion to largazole thiol in mouse serum” value in [4] is listed as “rapidly converted”.
As for `C/C=C1\NC(=O)[C@H]2CSSCC/C=C/[C@H](CC(=O)N[C@H](C(C)C)C(=O)N2)OC(=O)[C@H](C(C)C)NC1=O` [romidepsin], the “Volume of distribution (Vdss)” value in data set [5] is listed as 22.3 L/kg.
Consider `O=C(CCCCCCC(=O)Nc1ccccc1)NO` [vorinostat, Suberoylanilide hydroxamic acid], for which the Cellular activity result was “micromolar”. Moreover, in data set [6], the “Plasma protein binding, bound to human plasma” value is on record as 71.3%. For the same compound, in [7], the Clearance is 55 mL/min/kg and the distribution volume (Vdss) is given as 0.6 L/kg.
In the case of largazole thiol, the “Potency against HDAC isoforms” value in the data set with HDACs 1, 2 and 3 is recorded as “subnanomolar”.
